Data taken from patent US4783443A, “Amino acyl cephalosporin derivatives” (The University of Chicago, priority 1986, dated 1988).

Experiments:
[1] = test system: Gram-negative and -positive bacteria; conditions: Cheung et al., 1983; cited from earlier work
[2] = test system: Staphylococcus aureus PSL-13 Pen^R; assay: Minimum inhibitory concentration (MIC); assay type: cell-based; conditions: possesses a betalactamase
Excerpt: (§1) The antibacterial effects of compounds of the invention have been assessed by determination of the minimum inhibitory concentration (M.I.C.) value against a variety of Gram-negative and -positive bacteria. The microbial susceptibility data for four compounds, together with those for the antibacterial dipeptide beta-Cl-LAla-beta-Cl-LAla, are given in Table I.
(§2) in uM to facilitate a meaningful comparison of the approximate MICs among
(§3) the tested compounds; an appreciation of the MIC values in ug/mL can be
(§4) obtained by multiplying each value (μM) by 0.55

[3] = test system: Staphylococcus aureus H-2690-8^R; assay: Minimum inhibitory concentration (MIC); assay type: cell-based; conditions: possesses a betalactamase
Excerpt: as §1, §2, §3, §4

[4] = test system: Staphylococcus aureus PSL-14 Pen^R; assay: Minimum inhibitory concentration (MIC); assay type: cell-based; conditions: possesses a betalactamase
Excerpt: as §1, §2, §3, §4

Enterobacter areogenes = assay: Minimum inhibitory concentration (MIC); assay type: cell-based; conditions: Gram-negative
Excerpt: as §1, §2, §3, §4

Klebsiella pneumoniae = assay: Minimum inhibitory concentration (MIC); assay type: cell-based; conditions: Gram-negative
Excerpt: as §1, §2, §3, §4

[5] = test system: Salmonella typhimurium LT 2; assay: Minimum inhibitory concentration (MIC); assay type: cell-based; conditions: Gram-negative
Excerpt: as §1, §2, §3, §4

Escherichia coli JSR-O = assay: Minimum inhibitory concentration (MIC); assay type: cell-based; conditions: Escherichia coli JSR-O; parental strain
Excerpt: as §1, §2, §3, §4

[6] = test system: Staphylococcus aureus T-4624-8 Pen^R; assay: Minimum inhibitory concentration (MIC); assay type: cell-based; conditions: possesses a betalactamase
Excerpt: as §1, §2, §3, §4

Salmonella typhimurium = assay: Minimum inhibitory concentration (MIC); assay type: cell-based; conditions: Gram-negative
Excerpt: as §1, §2, §3, §4

[7] = test system: Hemophilus influenzae 236; assay: Minimum inhibitory concentration (MIC); assay type: cell-based
Excerpt: as §1, §2, §3, §4

Morganella morganii = assay: Minimum inhibitory concentration (MIC); assay type: cell-based; conditions: Gram-negative
Excerpt: as §1, §2, §3, §4

Serratia marcescens = assay: Minimum inhibitory concentration (MIC); assay type: cell-based; conditions: Gram-negative
Excerpt: as §1, §2, §3, §4

[8] = test system: Hemophilus influenzae 487; assay: Minimum inhibitory concentration (MIC); assay type: cell-based; conditions: possesses a betalactamase
Excerpt: as §1, §2, §3, §4

Psuedomonas aeruginosa = assay: Minimum inhibitory concentration (MIC); assay type: cell-based; conditions: Gram-negative
Excerpt: as §1, §2, §3, §4

[9] = test system: Staphylococcus aureus PSL-16 Pen^R; assay: Minimum inhibitory concentration (MIC); assay type: cell-based; conditions: possesses a betalactamase
Excerpt: as §1, §2, §3, §4

Streptococcus agalactiae = assay: Minimum inhibitory concentration (MIC); assay type: cell-based; conditions: Gram positive
Excerpt: as §1, §2, §3, §4

Escherichia coli CR = assay: Minimum inhibitory concentration (MIC); assay type: cell-based; conditions: Escherichia coli CR
Excerpt: as §1, §2, §3, §4

Enterobacter cloacae = assay: Minimum inhibitory concentration (MIC); assay type: cell-based; conditions: Gram-negative
Excerpt: as §1, §2, §3, §4

[10] = test system: Staphylococcus aureus PSL-15 Pen^R; assay: Minimum inhibitory concentration (MIC); assay type: cell-based; conditions: possesses a betalactamase
Excerpt: as §1, §2, §3, §4

[11] = test system: Hemophilus influenzae 238; assay: Minimum inhibitory concentration (MIC); assay type: cell-based
Excerpt: as §1, §2, §3, §4

Streptococcus faecalis = assay: Minimum inhibitory concentration (MIC); assay type: cell-based; conditions: Streptococcus faecalis; Gram positive
Excerpt: as §1, §2, §3, §4

Shigella flexneri = assay: Minimum inhibitory concentration (MIC); assay type: cell-based; conditions: Gram-negative
Excerpt: as §1, §2, §3, §4

[12] = test system: Gram-negative and -positive bacteria; assay: Antibacterial activity, general trends of the MIC panel of Table I; assay type: cell-based
Excerpt: as §1

Escherichia coli Ceph^R = assay: Minimum inhibitory concentration (MIC); assay type: cell-based; conditions: Escherichia coli Ceph^R; resistant to cephalothin
Excerpt: as §1, §2, §3, §4
(§5) ^(j) Resistant to cephalothin (MIC >200 uM);

Corynebacterium JKR-2285 = assay: Minimum inhibitory concentration (MIC); assay type: cell-based; conditions: Corynebacterium JKR-2285; resistant to cephalothin
Excerpt: as §1, §2, §3, §4, §5

Corynebacterium JKM-4754 = assay: Minimum inhibitory concentration (MIC); assay type: cell-based; conditions: Corynebacterium JKM-4754; resistant to cephalothin
Excerpt: as §1, §2, §3, §4, §5

[13] = test system: Staphylococcus epidermidis (P^R M^R); assay: Minimum inhibitory concentration (MIC); assay type: cell-based; conditions: no strain number
Excerpt: as §1, §2, §3, §4
(§6) ^(k) P and M refer to penicillin and methicillin, respectively.

[14] = test system: Staphylococcus epidermidis MO1554(P^S M^S); assay: Minimum inhibitory concentration (MIC); assay type: cell-based; conditions: Staphylococcus epidermidis MO1554 (penicillin- and methicillin-sensitive, P^S M^S)
Excerpt: as §1, §2, §3, §4, §6

[15] = test system: Staphylococcus epidermidis 1239(P^R M^R); assay: Minimum inhibitory concentration (MIC); assay type: cell-based
Excerpt: as §1, §2, §3, §4, §6

[16] = test system: Escherichia coli JSR-O Cl-Pep^R; assay: Minimum inhibitory concentration (MIC); assay type: cell-based; conditions: Escherichia coli JSR-O Cl-Pep^R; selected for resistance to the peptide (f)
Excerpt: as §1, §2, §3, §4
^(g) This ia an E. coli JSRO strain selected for resistance to the
A comparison of the data for E. coli strains JSR-O and JSR-O Cl-Pep^R is of special interest. E. coli Cl-Pep^R is an E. coli JSR-O mutant which was selected for resistance to the dipeptide (f). […] Note that the MIC values for (d) and (e) against E. coli Cl-Pep^R (100 and 50 μM, respectively) are quite similar.

Betachloro-L-Ala-beta-chloro-L-Ala [(f), reference compound]
antibacterial potency of dipeptide versus beta-Cl-LAla [1]: consistently and dramatically more potent an antibacterial agent than is beta-Cl-LAla alone | Minimum Inhibitory Concentration [2]: 1.56 µM | Minimum Inhibitory Concentration [3]: 1.56 µM | Minimum Inhibitory Concentration [4]: 12.5 µM | Minimum Inhibitory Concentration (Enterobacter areogenes): 25 µM | Minimum Inhibitory Concentration (Klebsiella pneumoniae): > 200 µM | Minimum Inhibitory Concentration [5]: 200 µM | Minimum Inhibitory Concentration (Escherichia coli JSR-O): 12.5 µM | Minimum Inhibitory Concentration [6]: 1.56 µM | Minimum Inhibitory Concentration (Salmonella typhimurium): 200 µM | Minimum Inhibitory Concentration [7]: > 200 µM | Minimum Inhibitory Concentration (Morganella morganii): 200 µM | Minimum Inhibitory Concentration (Serratia marcescens): > 200 µM | Minimum Inhibitory Concentration [8]: ≤ 0.78 µM | Minimum Inhibitory Concentration (Psuedomonas aeruginosa): > 200 µM | Minimum Inhibitory Concentration [9]: 12.5 µM | Minimum Inhibitory Concentration (Streptococcus agalactiae): ≤ 0.78 µM | Minimum Inhibitory Concentration (Escherichia coli CR): 12.5 µM | Minimum Inhibitory Concentration (Enterobacter cloacae): 12.5 µM | Minimum Inhibitory Concentration [10]: 12.5 µM | Minimum Inhibitory Concentration [11]: 12.5 µM | Minimum Inhibitory Concentration (Streptococcus faecalis): 6.25 µM | Minimum Inhibitory Concentration (Shigella flexneri): 200 µM | insensitivity / resistance ([12]; P. aeruginosa, S. marcescens and K. pneumoniae): inherently insensitive | sensitivity ([12]; S. aureus strains, Corynebacterium JK strains, S. faecalis, H. influenzae 487, E. coli JSR-O and E. cloacae): sensitive | sensitivity ([12]; S. epidermidis 1239 P^R M^R and M-1554 P^S M^S): exquisitely sensitive | Minimum Inhibitory Concentration (Escherichia coli Ceph^R): 3.12 µM | Minimum Inhibitory Concentration (Corynebacterium JKR-2285): 0.78 µM | Minimum Inhibitory Concentration (Corynebacterium JKM-4754): 0.78 µM | Minimum Inhibitory Concentration [13]: ≤ 0.78 µM | Minimum Inhibitory Concentration [14]: ≤ 0.78 µM | Minimum Inhibitory Concentration [15]: ≤ 0.78 µM | Minimum Inhibitory Concentration [16]: > 200 µM
